Test system: hemoglobin-haptoglobin complex
Assay: Stability of hemoglobin (as hemoglobin-haptoglobin complex) in samples preserved at 37° C. in preservation solution containing 1 unit/L haptoglobin, Hb measured by latex agglutination method (Examples 1 to 7)
Set-up: species or system human
Conditions: for Hb concentration / Recovery ratio with respect to Hb concentration after 0 days: 37° C.
Summary of the method: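 Latex agglutination (anti-human hemoglobin rabbit polyclonal latex) measured Hb in samples stored at 37 °C up to 21 days; values expressed as % recovery versus day 0. Preservation solution: HEPES 40 mmol/L pH 6.8, BSA 0.1%, NaN3 0.1%, haptoglobin 1 unit/L, phenylboronic acid 0–100 mmol/L, optional sugars; ~300 µg/L Hb, 0.5% feces or none.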

[1] = Feces 1, sugar 50 mmol/L + phenylboronic acid 15 mmol/L, 0 days
[2] = Feces 1, sugar 50 mmol/L + phenylboronic acid 15 mmol/L, 7 days
[3] = Feces 1, sugar 50 mmol/L + phenylboronic acid 15 mmol/L, 14 days
[4] = Feces 1, sugar 50 mmol/L + phenylboronic acid 15 mmol/L, 21 days
[5] = Feces 1, sugar 100 mmol/L + phenylboronic acid 15 mmol/L, 0 days
[6] = Feces 1, sugar 100 mmol/L + phenylboronic acid 15 mmol/L, 7 days
[7] = Feces 1, sugar 100 mmol/L + phenylboronic acid 15 mmol/L, 14 days
[8] = Feces 1, sugar 100 mmol/L + phenylboronic acid 15 mmol/L, 21 days
[9] = Feces 1, sugar 100 mmol/L, no phenylboronic acid, 0 days
[10] = Feces 1, sugar 100 mmol/L, no phenylboronic acid, 7 days
[11] = Feces 1, sugar 100 mmol/L, no phenylboronic acid, 14 days
[12] = Feces 1, sugar 100 mmol/L, no phenylboronic acid, 21 days
[13] = Feces 2, sugar 50 mmol/L + phenylboronic acid 15 mmol/L, 0 days
[14] = Feces 2, sugar 50 mmol/L + phenylboronic acid 15 mmol/L, 7 days
[15] = Feces 2, sugar 50 mmol/L + phenylboronic acid 15 mmol/L, 14 days
[16] = Feces 2, sugar 50 mmol/L + phenylboronic acid 15 mmol/L, 21 days
[17] = Feces 2, sugar 100 mmol/L + phenylboronic acid 15 mmol/L, 0 days
[18] = Feces 2, sugar 100 mmol/L + phenylboronic acid 15 mmol/L, 14 days
[19] = Feces 2, sugar 100 mmol/L + phenylboronic acid 15 mmol/L, 21 days
[20] = Feces 2, sugar 100 mmol/L, no phenylboronic acid, 0 days
[21] = Feces 2, sugar 100 mmol/L, no phenylboronic acid, 7 days
[22] = Feces 2, sugar 100 mmol/L, no phenylboronic acid, 14 days
[23] = Feces 2, sugar 100 mmol/L, no phenylboronic acid, 21 days
[24] = Feces 3, sugar 50 mmol/L + phenylboronic acid 15 mmol/L, 0 days
[25] = Feces 3, sugar 50 mmol/L + phenylboronic acid 15 mmol/L, 7 days
[26] = Feces 3, sugar 50 mmol/L + phenylboronic acid 15 mmol/L, 14 days
[27] = Feces 3, sugar 50 mmol/L + phenylboronic acid 15 mmol/L, 21 days
[28] = Feces 3, sugar 100 mmol/L + phenylboronic acid 15 mmol/L, 0 days
[29] = Feces 3, sugar 100 mmol/L + phenylboronic acid 15 mmol/L, 7 days
[30] = Feces 3, sugar 100 mmol/L + phenylboronic acid 15 mmol/L, 14 days
[31] = Feces 3, sugar 100 mmol/L + phenylboronic acid 15 mmol/L, 21 days
[32] = Feces 3, sugar 100 mmol/L, no phenylboronic acid, 0 days
[33] = Feces 3, sugar 100 mmol/L, no phenylboronic acid, 7 days
[34] = Feces 3, sugar 100 mmol/L, no phenylboronic acid, 14 days
[35] = Feces 3, sugar 100 mmol/L, no phenylboronic acid, 21 days
[36] = No feces, sugar 50 mmol/L + phenylboronic acid 15 mmol/L, 7 days
[37] = No feces, sugar 50 mmol/L + phenylboronic acid 15 mmol/L, 14 days
[38] = No feces, sugar 100 mmol/L + phenylboronic acid 15 mmol/L, 0 days
[39] = No feces, sugar 100 mmol/L + phenylboronic acid 15 mmol/L, 7 days
[40] = No feces, sugar 100 mmol/L + phenylboronic acid 15 mmol/L, 14 days
[41] = No feces, sugar 100 mmol/L + phenylboronic acid 15 mmol/L, 21 days
[42] = No feces, sugar 100 mmol/L, no phenylboronic acid, 7 days
[43] = No feces, sugar 100 mmol/L, no phenylboronic acid, 14 days
[44] = No feces, sugar 100 mmol/L, no phenylboronic acid, 21 days

OC[C@H]1O[C@@](CO)(O[C@H]2O[C@H](CO)[C@@H](O)[C@H](O)[C@H]2O)[C@@H](O)[C@@H]1O [Sucrose, sucrose]
Hb concentration [1]: 291 µg/L
Recovery ratio with respect to Hb concentration after 0 days [1]: 100%
Hb concentration [2]: 281 µg/L
Recovery ratio with respect to Hb concentration after 0 days [2]: 97%
Hb concentration [3]: 274 µg/L
Recovery ratio with respect to Hb concentration after 0 days [3]: 94%
Hb concentration [4]: 268 µg/L
Recovery ratio with respect to Hb concentration after 0 days [4]: 92%
Hb concentration [5]: 286 µg/L
Recovery ratio with respect to Hb concentration after 0 days [5]: 100%
Hb concentration [6]: 272 µg/L
Recovery ratio with respect to Hb concentration after 0 days [6]: 95%
Hb concentration [7]: 270 µg/L
Recovery ratio with respect to Hb concentration after 0 days [7]: 94%
Hb concentration [8]: 258 µg/L
Recovery ratio with respect to Hb concentration after 0 days [8]: 90%
Hb concentration [9]: 264 µg/L
Recovery ratio with respect to Hb concentration after 0 days [9]: 100%
Hb concentration [10]: 115 µg/L
Recovery ratio with respect to Hb concentration after 0 days [10]: 44%
Hb concentration [11]: 70 µg/L
Recovery ratio with respect to Hb concentration after 0 days [11]: 27%
Hb concentration [12]: 80 µg/L
Recovery ratio with respect to Hb concentration after 0 days [12]: 30%
Hb concentration [13]: 273 µg/L
Recovery ratio with respect to Hb concentration after 0 days [13]: 100%
Hb concentration [14]: 266 µg/L
Recovery ratio with respect to Hb concentration after 0 days [14]: 97%
Hb concentration [15]: 232 µg/L
Recovery ratio with respect to Hb concentration after 0 days [15]: 85%
Hb concentration [16]: 212 µg/L
Recovery ratio with respect to Hb concentration after 0 days [16]: 78%
Hb concentration [17]: 267 µg/L
Recovery ratio with respect to Hb concentration after 0 days [17]: 100%
Recovery ratio with respect to Hb concentration after 0 days (Feces 2, sugar 100 mmol/L + phenylboronic acid 15 mmol/L, 7 days): 96%
Hb concentration [18]: 236 µg/L
Recovery ratio with respect to Hb concentration after 0 days [18]: 88%
Hb concentration [19]: 219 µg/L
Recovery ratio with respect to Hb concentration after 0 days [19]: 82%
Hb concentration [20]: 270 µg/L
Recovery ratio with respect to Hb concentration after 0 days [20]: 100%
Hb concentration [21]: 96 µg/L
Recovery ratio with respect to Hb concentration after 0 days [21]: 36%
Hb concentration [22]: 49 µg/L
Recovery ratio with respect to Hb concentration after 0 days [22]: 18%
Hb concentration [23]: 31 µg/L
Recovery ratio with respect to Hb concentration after 0 days [23]: 11%
Hb concentration [24]: 286 µg/L
Recovery ratio with respect to Hb concentration after 0 days [24]: 100%
Hb concentration [25]: 234 µg/L
Recovery ratio with respect to Hb concentration after 0 days [25]: 82%
Hb concentration [26]: 209 µg/L
Recovery ratio with respect to Hb concentration after 0 days [26]: 73%
Hb concentration [27]: 195 µg/L
Recovery ratio with respect to Hb concentration after 0 days [27]: 68%
Hb concentration [28]: 272 µg/L
Recovery ratio with respect to Hb concentration after 0 days [28]: 100%
Hb concentration [29]: 230 µg/L
Recovery ratio with respect to Hb concentration after 0 days [29]: 85%
Hb concentration [30]: 201 µg/L
Recovery ratio with respect to Hb concentration after 0 days [30]: 74%
Hb concentration [31]: 187 µg/L
Recovery ratio with respect to Hb concentration after 0 days [31]: 69%
Hb concentration [32]: 267 µg/L
Recovery ratio with respect to Hb concentration after 0 days [32]: 100%
Hb concentration [33]: 89 µg/L
Recovery ratio with respect to Hb concentration after 0 days [33]: 33%
Hb concentration [34]: 55 µg/L
Recovery ratio with respect to Hb concentration after 0 days [34]: 21%
Hb concentration [35]: 40 µg/L
Recovery ratio with respect to Hb concentration after 0 days [35]: 15%
Recovery ratio with respect to Hb concentration after 0 days (No feces, sugar 50 mmol/L + phenylboronic acid 15 mmol/L, 0 days): 100%
Hb concentration [36]: 253 µg/L
Recovery ratio with respect to Hb concentration after 0 days [36]: 93%
Hb concentration [37]: 246 µg/L
Recovery ratio with respect to Hb concentration after 0 days [37]: 91%
Recovery ratio with respect to Hb concentration after 0 days (No feces, sugar 50 mmol/L + phenylboronic acid 15 mmol/L, 21 days): 95%
Hb concentration [38]: 267 µg/L
Recovery ratio with respect to Hb concentration after 0 days [38]: 100%
Hb concentration [39]: 247 µg/L
Recovery ratio with respect to Hb concentration after 0 days [39]: 93%
Hb concentration [40]: 241 µg/L
Recovery ratio with respect to Hb concentration after 0 days [40]: 90%
Hb concentration [41]: 260 µg/L
Recovery ratio with respect to Hb concentration after 0 days [41]: 97%
Recovery ratio with respect to Hb concentration after 0 days (No feces, sugar 100 mmol/L, no phenylboronic acid, 0 days): 100%
Hb concentration [42]: 228 µg/L
Recovery ratio with respect to Hb concentration after 0 days [42]: 93%
Hb concentration [43]: 223 µg/L
Recovery ratio with respect to Hb concentration after 0 days [43]: 91%
Hb concentration [44]: 222 µg/L
Recovery ratio with respect to Hb concentration after 0 days [44]: 91%
recovery ratio of hemoglobin in the sample (sugar 100 mmol/L further added to other arylboronic acids (3-CPBA, 3-HPBA, 3-APBA) 15 mmol/L, Feces 1, Feces 2, Feces 3): further improved
recovery ratio of hemoglobin in the samples containing fecal specimens (sugar 100 mmol/L, preservation solutions containing no phenylboronic acid): does not improve
recovery ratio of hemoglobin in the sample (sugar 50 or 100 mmol/L further added to phenylboronic acid 15 mmol/L, Feces 1, Feces 2, Feces 3): further improved
recovery ratio of hemoglobin in the samples containing feces (sugar added to phenylboronic acid 15 mmol/L, Feces 1, Feces 2, Feces 3): improved depending on the added concentration
